Source: patent US20060003896A1, “Novel diterpenoid compounds imparting stress resistance to plants” (National Institute of Agrobiological Sciences, priority 2002, published 2006)

Columns and labels:
[1] = test system: vermin; assay: Presenting vermin to rice administered with the substance; assay type: in vivo; conditions: vermin presented
Experimental: Therefore, an experiment was conducted by administering this substance to plants and presenting vermin to the administered plant. In this example, rice was used as a target.

[2] = test system: SA; assay: Intrinsic SA level in tobacco leaves after absorption through the petiole; assay type: cell-based; conditions: 3-, 6-, 12- or 24-hours culture
[3] = test system: ethylene; assay: Release of ethylene from treated tobacco leaf; assay type: cell-based
Experimental: Ethylene acts as a signal in the induction of basic PR protein of tobacco plant, so the release of ethylene was measured after externally giving WAF-1 to a tobacco leaf as above to evaluate the effects of synthetic substance on ethylene accumulation.

[4] = test system: basic PR-2 gene; assay: Northern blot analysis of transcription products in treated tobacco leaves; assay type: cell-based, Nicotiana tabacum cv. Samsun NN; conditions: through the petiole
Experimental: (§1) Isolated material was dissolved in dimethyl sulfoxide (DMSO) and diluted with 10 mM Mes-NaOH (pH 5.6) to an adequate concentration. If it was used in an assay, the DMSO concentration was kept below 0.1%. […] 10 mM Mes-NaOH (pH 5.6) without active substance of the invention was used as a control group. In a certain amount of time, the leaves were collected and immediately frozen in liquid nitrogen to conduct WIPK activity measurement or RNA extraction for Northern blot analysis. WIPK activity measurement, RNA extraction and Northern blot analysis were performed following Seo et al. (1999) plant Cell 11, 289-291. WIPK activity was measured 15 minutes after the subject was allowed to absorb the isolated compound at the given concentration through the petiole. Only buffer was absorbed in a control group. As another control group (healthy leaf), leaves were cut from tobacco plant body to be immediately subjected to WIPK activity measurement. For proteinase inhibitor II (PI-II), basic PR-1, basic PR-2 genes and ACO, transcription product amounts of PI-II, basic PR-1, basic PR-2 genes and ACO-coding gene were measured after allowing the subject absorb the isolated compound at the given concentration through the petiole for a period of time. As a control group, only buffer was absorbed. The outline is as follows: Nucleic acid hybridization reaction was performed on nylon membrane containing 20 μg total RNA with ^32P-radiolabeled cDNA of tobacco PI-II, basic PR-1, basic PR-2 genes and ACO-coding gene. After the membrane was washed it was used to expose to an X-ray film.

[5] = test system: basic PR-1 gene; assay: as above; assay type: cell-based, Nicotiana tabacum cv. Samsun NN; conditions: through the petiole
Experimental: as §1

[6] = test system: proteinase inhibitor II gene; assay: as above; assay type: cell-based, Nicotiana tabacum cv. Samsun NN
Experimental: as §1

[7] = test system: ACO-coding gene; assay: as above; assay type: cell-based, Nicotiana tabacum cv. Samsun NN; conditions: through the petiole
Experimental: as §1

[8] = test system: rice (Oryza sativa); assay: Growth of periphery and height of stem after spraying; assay type: in vivo; conditions: sprayed, 300, 100 and 30 ng/ml, 24° C.
Experimental: (§2) In this Example, 15-day-old Arabidopsis (Arabidopsis thaliana), 1-month-old tobacco (Nicotiana tabacum cv. Samsun—NN), or 20-day-old rice (Oryza sativa) was used to provide plant bodies. The compound of this invention was dissolved in dimethyl sulfoxide (DMSO) and diluted with 10 mM Mes-NaOH (pH 5.6) to an adequate concentration (300, 100 and 30 ng/ml). 10 mM of Mes-NaOH containing the compound of this invention at the given concentration was sprayed to tobacco and rice plant bodies, followed by culture at 24° C. As a control group, 10 mM Mes-NaOH (pH 5.6) free of the compound of this invention was used. In a certain amount of time, the periphery and the height of stem above ground level were measured in rice, Arabidopsis and tobacco plant bodies.

[9] = test system: Arabidopsis (Arabidopsis thaliana); assay: as above; assay type: in vivo; conditions: sprayed, 300, 100 and 30 ng/ml, 24° C.
Experimental: as §2

[10] = test system: tobacco (Nicotiana tabacum cv. Samsun—NN); assay: as above; assay type: in vivo; conditions: sprayed, 300, 100 and 30 ng/ml, 24° C.
Experimental: as §2

[11] = test system: WIPK; assay: WIPK activity measurement (MBP phosphorylation by anti-WIPK immune complex) in treated tobacco leaves; assay type: cell-based, Nicotiana tabacum cv. Samsun NN
Experimental: The WIPK induced activity assay was conducted as follows: A filter paper was spread in a glass Petri dish of 3 cm inside diameter, onto which the test solution for assay was added, organic solvent was removed under the flow of nitrogen gas, and 10 mM Mes-NaOH (pH 5.6) of 1 ml was added, on which three leaf disks (diameter 9 mm) stamped out of the tobacco leaves were placed per Petri dish and cultured at 24° C. In two hours, the disks were collected and immediately frozen in liquid nitrogen to be used in WIPK activity measurement that was conducted following the method described in Seo et al. (1999) Plant Cell 11, 289-291. The outline is as follows:
Crude protein of 50 μg and anti-WIPK antibody were reacted and the myelin basic protein phosphorylation activity of WIPK in the resultant immune complex was measured.
as §1, with “follows:” for “follows: Nucleic acid hybridization reaction was performed on nylon membrane containing 20 μg total RNA with ^32P-radiolabeled cDNA of tobacco PI-II, basic PR-1, basic PR-2 genes and ACO-coding gene. After the membrane was washed it was used to expose to an X-ray film.”
(§3) Using natural isolated substances, preparations at concentrations of 10 and 100 pM, and 1 and 100 nM were prepared and these natural preparations or water were penetrated into tobacco leaf disks, followed by sampling at 30 minutes after treatment, to measure the MBP phosphorylation activity of WIPK and SIPK as described above.

[12] = test system: petunia plant body; assay: Flowering of petunia plant bodies after spraying; assay type: in vivo
Experimental: In this example, 1-month-old petunia plant body was used. The compound of this invention was dissolved in dimethyl sulfoxide (DMSO) and diluted with 10 mM Mes-NaOH (pH 5.6) to an adequate concentration (300, 100 and 30 ng/ml). 10 mM Mes-NaOH containing the compound of this invention at the given concentration was sprayed on the petunia plant bodies, followed by culture at 24° C. In a control group, 10 mM Mes-NaOH (pH 5.6) without the compound of this invention was used. After a certain amount of time, observation of the gross flowering features of the plant bodies was performed. The administration of the compound of this invention to plants was then discontinued, only buffer was sprayed, and the flowering was observed.

[13] = test system: WIZZ gene; assay: RNA gel blotting of WIZZ transcript in tobacco leaf disks; assay type: cell-based; conditions: 1 nM, 30 minutes after penetrance
Experimental: The transition in expression of the WIZZ transcript after stimulation with WAF-1 in this invention was ascertained using the following method. Leaf disks stamped out of tobacco leaves were penetrated with 1 nM WAF-1 solution or water and collected at 30 minutes after penetrance to be used for total RNA extraction. Total RNA extraction followed the method described in Seo et al. Plant Cell 1999, 11, 289-299. Isolated total RNA was subjected to RNA gel blotting analysis following the above procedure. A fragment, whose sequence corresponded to bases 877-1211 in the WIZZ cDNA (335 bp) was amplified, and used as a probe. As an internal standard probe, actin cDNA (described in Seo et al. 2000 12, 917-932) was also used. An RNA gel blot membrane containing 20 μg total RNA per lane was analized.

[14] = test system: SIPK; assay: SIPK activity measurement (MBP phosphorylation by anti-SIPK immune complex) in treated tobacco leaves; assay type: cell-based, Nicotiana tabacum cv. Samsun NN
Experimental: As an active substance, the substance isolated in Example 1 was used as a standard. The isolated substance was dissolved in dimethyl sulfoxide (DMSO) and diluted to adequate concentration (0.3, 1.5 and 3 ng/ml) with 10 mM Mes-NaOH (pH 5.6). If it was used in an assay, the DMSO concentration was kept below 0.1%. […] 10 mM Mes-NaOH (pH 5.6) without active substance of the invention was used as a control group. In a certain amount of time, the leaves were collected and immediately frozen in liquid nitrogen to measure the SIPK activity. The measurement was conducted as follows:
Crude protein of 50 μg and anti-SIPK antibody were reacted and the myelin basic protein (MBP) phosphorylation activity of SIPK in the resultant immune complex was measured.
as §3

[15] = test system: JA; assay: Intrinsic JA level in tobacco leaves after absorption through the petiole; assay type: cell-based; conditions: 3-, 6-, 12- or 24-hours culture
Experimental: To evaluate whether the induction of basic pathogenesis-related protein gene (PR-1 and PR-2) and proteinase inhibitor II gene by synthetic substance occurred through JA or SA, 100 nM or 1 μM WAF-1 or water was absorbed into tobacco leaves through the petiole, followed by culture at 24° C., to measure the intrinsic level of JA.

[16] = test system: TMV; assay: Defense of tobacco against TMV infection (necrotic lesion size, TMV coat protein); assay type: in vivo, tobacco mosaic virus
Experimental: To complete the infection, this healthy leaf was allowed to stand at room temperature for 30 minutes and washed with water removing the silicon carbide, after air drying, was put into a transparent plastic box spread with wet filter papers, followed by culture at 30° C. for 40 hours, then at 20° C. for 6 hours.
In this Example, the substance in this invention was administered to non-TMV-infected tobacco as a target. TMV stimulation was then given, under the same conditions as those in Example 1, to plants administered with the substance of this invention at the concentrations shown in FIG. 12 and tp control plant not administered to measure the size of necrotic lesions and the amount of TMV coat protein.

[17] = 1, 5 and 10 nM through the petiole
[18] = tobacco leaf disks, 30 minutes after treatment

## CC(/C=C/[C@@H]1[C@@]2(C)CCCC(C)(C)[C@@H]2CC[C@@]1(C)O)=C\CO [WAF-1, (11E,13E)-labda-11,13-diene-8α,15-diol]
[1]
  growth in administered rice compared with rice not administered: Growth was regulated
[2]; 100 nM
  amount of SA in treated leaves: at the same level as those treated with water
[2]; 1 AM (so in the source)
  amount of SA in treated leaves: at the same level as those treated with water
[3]; 100 nM
  level of ethylene released from leaves, relative to leaf treated with water: 1.2 times
[3]; 1 μM
  level of ethylene released from leaves, relative to leaf treated with water: 1.4 times
[4]
  accumulation of basic PR-2: accumulation
[5]
  accumulation of basic PR-1: accumulation
[6]; 16 hours
  amount of proteinase inhibitor II transcript compared with control group: significantly more
[6]; examined in 2, 6 and 16 hours, concentration of FIG. 3, through the petiole
  time at which accumulation of transcription products of proteinase inhibitor II gene was detected: 16 h
[7]
  accumulation of ACO: accumulation
[8]
  growth of height above ground level vs control group: growth of height above ground level was observed
[9]
  growth of periphery and height of stem vs control group: delay in growth of the periphery and height of stem
[10]
  growth of periphery and height of stem vs control group: delay in growth of the periphery and height of stem
[11]; [17]
  time at which WIPK activity was maximized: 15 min
  time at which induction of WIPK activity was observed: 5 min
[11]; 1, 5 and 10 nM through the petiole, 30 minutes
  WIPK activity at 30 minutes: retained maximum activity
[11]; each concentration of FIG. 2A given to leaf through the petiole, 15 minutes
  induction of WIPK activity: induction of WIPK activity at any concentration
[11]; [18]
  concentration above which activation of WIPK is significant: > 10 pM
[12]; only buffer sprayed
  flowering after discontinuation of administration: observation of flowering
[12]; sprayed, 300, 100 and 30 ng/ml, 24° C.
  flowering vs control group: delay in flowering
[13]
  level of WIZZ transcript compared with leaf disks impregnated with water: higher
[14]; [17]
  time at which induction of SIPK activity was maximized: 15 min
[14]; each concentration of FIG. 4 (0.3, 1.5 and 3 ng/ml) through the petiole, 15 minutes
  induction of SIPK activity: induction of SIPK activity at any concentration
[14]; [18]
  concentration above which activation of SIPK is significant: > 10 pM
[15]; 100 nM
  amount of JA in treated leaves: at the same level as those treated with water
[15]; 1 AM (so in the source)
  amount of JA in treated leaves: at the same level as those treated with water

## (11E,13E)-labda-11,13-diene-8α,15-diol [WAF-1]
[16]; tobacco leaf, 100 pM or 100 nM vs water
  TMV coat protein amount: decrease
[16]; tobacco, TMV stimulation, 10 pM to 100 nM, dose-dependent
  concentration above which the size of necrotic lesions decreased: higher than 100 pM
